Test results published in PubChem BioAssay (NCI).
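96-well plates; 48 h exposure; 5 concentrations. Endpoints by linear interpolation between flanking doses. Not reached: highest tested concentration assigned. TGI: concentration producing complete growth inhibition.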 *1 amine or outer side, *2 acyl side, *3 side chain or, on linkers, in order; H or OH if unused. Where a SMILES comes first, the peptide text is derived from it. [ ]: non-standard residue; d: D form. The star is where a group is joined. X31 = CC(=O)N(C)SCC(N[*:1])C(=O)[*:2]; Cbz = O=C(OCc1ccccc1)*; Bn = c1ccc(C*)cc1; For = O=C*

Key:
Test in all cases: DTP human tumour cell line panel, 48 h
786-0 renal = system: 786-0 renal
A549 NSCLC = system: A549 NSCLC
ACHN renal = system: ACHN renal
BT-549 breast = system: BT-549 breast
CCRF-CEM leukemia = system: CCRF-CEM leukemia
COLO 205 colon = system: COLO 205 colon
DU-145 prostate = system: DU-145 prostate
EKVX NSCLC = system: EKVX NSCLC
HCC-2998 colon = system: HCC-2998 colon
HCT-116 colon = system: HCT-116 colon
HCT-15 colon = system: HCT-15 colon
HL-60(TB) leukemia = system: HL-60(TB) leukemia
HOP-62 NSCLC = system: HOP-62 NSCLC
HOP-92 NSCLC = system: HOP-92 NSCLC
HS 578T breast = system: HS 578T breast
HT29 colon = system: HT29 colon
IGROV1 ovarian = system: IGROV1 ovarian
K-562 leukemia = system: K-562 leukemia
KM12 colon = system: KM12 colon
LOX IMVI melanoma = system: LOX IMVI melanoma
M14 melanoma = system: M14 melanoma
MALME-3M melanoma = system: MALME-3M melanoma
MCF7 breast = system: MCF7 breast
MDA-MB-231 breast = system: MDA-MB-231 breast
MDA-MB-435 = system: MDA-MB-435
MDA-N = system: MDA-N
MOLT-4 leukemia = system: MOLT-4 leukemia
NCI-H226 lung = system: NCI-H226 lung
NCI-H23 lung = system: NCI-H23 lung
NCI-H460 lung = system: NCI-H460 lung
NCI-H522 lung = system: NCI-H522 lung
NCI/ADR-RES ovarian = system: NCI/ADR-RES ovarian
OVCAR-3 ovarian = system: OVCAR-3 ovarian
OVCAR-4 ovarian = system: OVCAR-4 ovarian
OVCAR-5 ovarian = system: OVCAR-5 ovarian
OVCAR-8 ovarian = system: OVCAR-8 ovarian
PC-3 prostate = system: PC-3 prostate
RPMI-8226 leukemia = system: RPMI-8226 leukemia
RXF 393 renal = system: RXF 393 renal
SF-268 CNS = system: SF-268 CNS
SF-295 CNS = system: SF-295 CNS
SF-539 CNS = system: SF-539 CNS
SK-MEL-2 melanoma = system: SK-MEL-2 melanoma
SK-MEL-28 melanoma = system: SK-MEL-28 melanoma
SK-MEL-5 melanoma = system: SK-MEL-5 melanoma
SK-OV-3 ovarian = system: SK-OV-3 ovarian
SN12C renal = system: SN12C renal
SNB-19 CNS = system: SNB-19 CNS
SNB-75 CNS = system: SNB-75 CNS
SR leukemia = system: SR leukemia
SW-620 colon = system: SW-620 colon
T-47D breast = system: T-47D breast
TK-10 renal = system: TK-10 renal
U251 CNS = system: U251 CNS
UACC-257 melanoma = system: UACC-257 melanoma
UACC-62 melanoma = system: UACC-62 melanoma
UO-31 renal = system: UO-31 renal

SMILES: CC(=O)N(C)SCC(NC(=O)C(Cc1ccccc1)NC(=O)OCc1ccccc1)C(=O)NC(Cc1ccccc1)C(=O)NC(Cc1cn(C=O)c2ccccc12)C(=O)NC(CCCCNC(=O)OCc1ccccc1)C(=O)NC(C(=O)NC(CSN(C)C(C)=O)C(=O)NC(C(N)=O)C(C)OCc1ccccc1)C(C)OCc1ccccc1 (configuration not stated) (Cbz-F[X31]FW(For)K(Cbz)T(Bn)[X31]T(Bn)-NH2; configuration not given here)
- TGI (786-0 renal): > 100 µM
- TGI (A549 NSCLC): > 100 µM
- TGI (ACHN renal): > 100 µM
- TGI (BT-549 breast): 68.1 µM
- TGI (CCRF-CEM leukemia): > 100 µM
- TGI (COLO 205 colon): > 100 µM
- TGI (DU-145 prostate): > 100 µM
- TGI (EKVX NSCLC): > 100 µM
- TGI (HCC-2998 colon): > 100 µM
- TGI (HCT-116 colon): > 100 µM
- TGI (HCT-15 colon): > 100 µM
- TGI (HL-60(TB) leukemia): > 100 µM
- TGI (HOP-62 NSCLC): > 100 µM
- TGI (HOP-92 NSCLC): 56.6 µM
- TGI (HS 578T breast): > 100 µM
- TGI (HT29 colon): > 100 µM
- TGI (IGROV1 ovarian): > 100 µM
- TGI (K-562 leukemia): > 100 µM
- TGI (KM12 colon): > 100 µM
- TGI (LOX IMVI melanoma): > 100 µM
- TGI (M14 melanoma): > 100 µM
- TGI (MALME-3M melanoma): > 100 µM
- TGI (MCF7 breast): > 100 µM
- TGI (MDA-MB-231 breast): 30.5 µM
- TGI (MDA-MB-435): > 100 µM
- TGI (MDA-N): > 100 µM
- TGI (MOLT-4 leukemia): > 100 µM
- TGI (NCI-H226 lung): > 100 µM
- TGI (NCI-H23 lung): > 100 µM
- TGI (NCI-H460 lung): > 100 µM
- TGI (NCI-H522 lung): > 100 µM
- TGI (NCI/ADR-RES ovarian): > 100 µM
- TGI (OVCAR-3 ovarian): > 100 µM
- TGI (OVCAR-4 ovarian): > 100 µM
- TGI (OVCAR-5 ovarian): > 100 µM
- TGI (OVCAR-8 ovarian): > 100 µM
- TGI (PC-3 prostate): > 100 µM
- TGI (RPMI-8226 leukemia): > 100 µM
- TGI (RXF 393 renal): 41.9 µM
- TGI (SF-268 CNS): > 100 µM
- TGI (SF-295 CNS): > 100 µM
- TGI (SF-539 CNS): > 100 µM
- TGI (SK-MEL-2 melanoma): 28.7 µM
- TGI (SK-MEL-28 melanoma): > 100 µM
- TGI (SK-MEL-5 melanoma): > 100 µM
- TGI (SK-OV-3 ovarian): 96.1 µM
- TGI (SN12C renal): > 100 µM
- TGI (SNB-19 CNS): 51.7 µM
- TGI (SNB-75 CNS): 36.9 µM
- TGI (SR leukemia): > 100 µM
- TGI (SW-620 colon): > 100 µM
- TGI (T-47D breast): > 100 µM
- TGI (TK-10 renal): 57.2 µM
- TGI (U251 CNS): > 100 µM
- TGI (UACC-257 melanoma): > 100 µM
- TGI (UACC-62 melanoma): > 100 µM
- TGI (UO-31 renal): > 100 µM
